For this assay, the system named is BDF1 mice, P388 leukemia ip, median survival T/C. Nature of the assay: NCI In Vivo Anticancer Drug Screen. Data for tumor model P388 Leukemia (intraperitoneal) in B6D2F1 (BDF1) mice. The conditions noted are these: endpoint: median survival time, higher = longer survival. Put shortly:
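Each value expresses how treatment altered survival: treated-mouse outcome over vehicle-mouse outcome, both groups bearing the transplanted tumour.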

Setting [1] is: dose: 100.0 mg/kg/injection, schedule: Q01DX009 (ip), vehicle: saline with Tween-80.
Where [2] appears, read: dose: 100.0 mg/kg/injection, schedule: Q04DX003 (ip), vehicle: saline with Tween-80.
[3] abbreviates: dose: 200.0 mg/kg/injection, schedule: Q01DX009 (ip), vehicle: saline with Tween-80.
The mark [4] stands for this setting: dose: 200.0 mg/kg/injection, schedule: Q04DX003 (ip), vehicle: saline with Tween-80.
The mark [5] stands for this setting: dose: 400.0 mg/kg/injection, schedule: Q01DX009 (ip), vehicle: saline with Tween-80.
The mark [6] stands for this setting: dose: 400.0 mg/kg/injection, schedule: Q04DX003 (ip), vehicle: saline with Tween-80.
The mark [7] stands for this setting: dose: 100.0 mg/kg/injection, schedule: Q04DX003 (ip), vehicle: saline.
The mark [8] stands for this setting: dose: 200.0 mg/kg/injection, schedule: Q04DX003 (ip), vehicle: saline.
Where [9] appears, read: dose: 400.0 mg/kg/injection, schedule: Q04DX003 (ip), vehicle: saline.
The mark [10] stands for this setting: dose: 12.5 mg/kg/injection, schedule: Q01DX009 (ip), vehicle: saline with Tween-80.
Where [11] appears, read: dose: 25.0 mg/kg/injection, schedule: Q01DX009 (ip), vehicle: saline with Tween-80.
[12] abbreviates: dose: 50.0 mg/kg/injection, schedule: Q01DX009 (ip), vehicle: saline with Tween-80.
[13] abbreviates: dose: 25.0 mg/kg/injection, schedule: Q04DX003 (ip), vehicle: Klucel (hydroxypropylcellulose) (HPC).
Setting [14] is: dose: 50.0 mg/kg/injection, schedule: Q04DX003 (ip), vehicle: Klucel (hydroxypropylcellulose) (HPC).
The mark [15] stands for this setting: dose: 25.0 mg/kg/injection, schedule: Q01DX009 (ip), vehicle: Klucel (hydroxypropylcellulose) (HPC).
The mark [16] stands for this setting: dose: 50.0 mg/kg/injection, schedule: Q01DX009 (ip), vehicle: Klucel (hydroxypropylcellulose) (HPC).
Where [17] appears, read: dose: 100.0 mg/kg/injection, schedule: Q01DX009 (ip), vehicle: Klucel (hydroxypropylcellulose) (HPC).

Values joined by “and” are separate entries in the source; they are usually repeats but may differ in a detail not shown here. Equal values may be shown once. Toxic doses and inconclusive results are not listed.

With `O=C(/C=N/O)Nc1cc(Cl)ccc1Cl`, the T/C is 95 % of control under setting [1]; 100 % of control under setting [2]; 90 % of control under setting [3]; 100 % of control under setting [4]; 90 % of control under setting [5]; 100 % of control under setting [6].
Turning to `C[S+](C)C`, the T/C (dose: 12.0 mg/kg/injection, schedule: Q01DX001 (ip), vehicle: saline) is 100 % of control; the T/C (dose: 12.5 mg/kg/injection, schedule: Q04DX003 (ip), vehicle: saline) was 100 % of control; the T/C (dose: 25.0 mg/kg/injection, schedule: Q01DX001 (ip), vehicle: saline) is 100 % of control; the T/C (dose: 25.0 mg/kg/injection, schedule: Q04DX003 (ip), vehicle: saline) is 100 % of control; the T/C (dose: 50.0 mg/kg/injection, schedule: Q01DX001 (ip), vehicle: saline) was 100 % of control; the T/C (dose: 50.0 mg/kg/injection, schedule: Q04DX003 (ip), vehicle: saline) was 100 % of control. For the same compound, the T/C under setting [7] is 111 % of control, the T/C under setting [8] is 100 % of control and the T/C under setting [9] is 96 % of control.
With `CCC(=O)NC(C(=O)NC(C(=O)NC(CC(C)C)C(O)CC(=O)NC(C)C(=O)NC(CC(C)C)C(O)CC(=O)O)C(C)C)C(C)C` (stereo not given), the T/C was 100 % of control under setting [10]; 109 % of control under setting [11]; 109 % of control and 114 % of control under setting [12]; 94 % of control under setting [1].
With `CCCCNC(C)(C)COC(=O)/C=C/c1ccc(OCCCC)cc1`, the T/C is 100 % of control (dose: 6.25 mg/kg/injection, schedule: Q01DX010 (ip), vehicle: saline); 100 % of control (dose: 12.5 mg/kg/injection, schedule: Q01DX010 (ip), vehicle: saline); 113 % of control (dose: 25.0 mg/kg/injection, schedule: Q01DX010 (ip), vehicle: saline); 100 % of control (dose: 50.0 mg/kg/injection, schedule: Q01DX010 (ip), vehicle: saline).
For the compound `C[N+]12CCCc3cc(CO)cc(c31)CCC2`, the T/C by setting is: (dose: 12.5 mg/kg/injection, schedule: Q04DX003 (ip), vehicle: Klucel (hydroxypropylcellulose) (HPC)) 103 % of control; under setting [13], 100 % of control; under setting [14], 119 % of control.
In the case of `OCC1(CO)COC(c2ccccc2)OC1`, the T/C under setting [13] was 95 % of control; the T/C under setting [14] was 100 % of control; the T/C (dose: 100.0 mg/kg/injection, schedule: Q04DX003 (ip), vehicle: Klucel (hydroxypropylcellulose) (HPC)) was 100 % of control.
Take `CC1(c2ccco2)NC(=O)NC1=O` (stereo not given): the T/C under setting [1] was 105 % of control, the T/C under setting [3] was 105 % of control and the T/C under setting [5] is 105 % of control.
Regarding `CN(C)C(=O)c1cccc(NC(=O)Oc2ccccc2)c1`, the T/C is, setting by setting: under setting [1], 90 % of control; under setting [3], 95 % of control.
As to `O=[N+]([O-])c1ccc(/C=C2\c3ccccc3-c3nc4ccccc4nc32)cc1`, the T/C (dose: 150.0 mg/kg/injection, schedule: Q01DX001 (ip), vehicle: other) was 118 % of control and the T/C (dose: 300.0 mg/kg/injection, schedule: Q01DX001 (ip), vehicle: other) was 86 % of control.
On to `CC(=O)N\C(N)=N/N=C\C(C)=N/N=C(\N)NC(C)=O`, for which the T/C under setting [12] was 97 % of control, the T/C under setting [1] is 100 % of control and the T/C under setting [3] is 100 % of control.
On to `Cc1c(Cl)cccc1NC(=O)/C=C/C(=O)O`, for which the T/C is, setting by setting: (dose: 44.0 mg/kg/injection, schedule: Q01DX009 (ip), vehicle: saline with Tween-80) 95 % of control; under setting [12], 122 % of control; (dose: 66.0 mg/kg/injection, schedule: Q01DX009 (ip), vehicle: saline with Tween-80) 100 % of control; under setting [1], 100 % of control; (dose: 150.0 mg/kg/injection, schedule: Q01DX009 (ip), vehicle: saline with Tween-80) 104 % of control; under setting [3], 109 % of control.
For the compound `C[Si](C)(C)C1([Si](C)(C)C)CO1`, the T/C under setting [7] is 108 % of control, the T/C under setting [8] is 109 % of control and the T/C under setting [9] is 108 % of control.
Turning to `CC(=O)Nc1cc(C)c2ccc(Cl)nc2n1`, the T/C is 97 % of control under setting [7], 92 % of control under setting [8] and 91 % of control under setting [9].
Consider `CN(C)CCCNC1=C(Cl)C(=O)c2ccccc2C1=O`, for which the T/C (dose: 6.25 mg/kg/injection, schedule: Q01DX009 (ip), vehicle: Klucel (hydroxypropylcellulose) (HPC)) is 114 % of control; the T/C (dose: 12.5 mg/kg/injection, schedule: Q01DX009 (ip), vehicle: Klucel (hydroxypropylcellulose) (HPC)) was 109 % of control; the T/C under setting [15] is 116 % of control.
In the case of `CCS(=O)(=O)CC`, the T/C by setting is: (dose: 100.0 mg/kg/injection, schedule: Q04DX003 (ip), vehicle: saline sonified) 95 % of control; (dose: 200.0 mg/kg/injection, schedule: Q04DX003 (ip), vehicle: saline sonified) 100 % of control; (dose: 400.0 mg/kg/injection, schedule: Q04DX003 (ip), vehicle: saline sonified) 100 % of control.
Regarding `Nc1nc(=S)[nH]c(C(=O)O)c1Cc1ccccc1`, the T/C was 109 % of control under setting [15]; 86 % of control and 115 % of control under setting [16]; 115 % of control under setting [17]; 120 % of control (dose: 200.0 mg/kg/injection, schedule: Q01DX009 (ip), vehicle: Klucel (hydroxypropylcellulose) (HPC)).
For the compound `CC(=O)/C(C)=C/C=O`, the T/C is 116 % of control (dose: 0.25 mg/kg/injection, schedule: Q01DX009 (ip), vehicle: water); 89 % of control and 96 % of control and 116 % of control (dose: 0.5 mg/kg/injection, schedule: Q01DX009 (ip), vehicle: water); 97 % of control and 103 % of control and 116 % of control (dose: 1.0 mg/kg/injection, schedule: Q01DX009 (ip), vehicle: water); 94 % of control and 97 % of control (dose: 2.0 mg/kg/injection, schedule: Q01DX009 (ip), vehicle: water); 96 % of control and 97 % of control and 116 % of control (dose: 4.0 mg/kg/injection, schedule: Q01DX009 (ip), vehicle: water); 103 % of control (dose: 8.0 mg/kg/injection, schedule: Q01DX009 (ip), vehicle: water).
For the compound `COC(=O)C(CSCSC)NC(=O)/C=C/c1ccccc1Cl` (stereo not given), the T/C is 100 % of control under setting [2]; 87 % of control and 104 % of control under setting [4]; 90 % of control under setting [6].
Consider `CCS(=O)(=O)OCCCl`, for which the T/C by setting is: under setting [15], 100 % of control; (dose: 44.0 mg/kg/injection, schedule: Q01DX009 (ip), vehicle: saline) 104 % of control; under setting [16], 100 % of control; under setting [12], 103 % of control; (dose: 50.0 mg/kg/injection, schedule: Q01DX009 (ip), vehicle: saline) 161 % of control; (dose: 66.0 mg/kg/injection, schedule: Q01DX009 (ip), vehicle: saline) 108 % of control. Moreover, the T/C reads like this: under setting [17], 105 % of control; under setting [1], 104 % of control; (dose: 100.0 mg/kg/injection, schedule: Q01DX009 (ip), vehicle: saline) 230 % of control and 95 % of control and 108 % of control; under setting [7], 100 % of control; (dose: 150.0 mg/kg/injection, schedule: Q01DX009 (ip), vehicle: saline) 120 % of control; under setting [3], 116 % of control. Under setting [8], the T/C is 91 % of control.
Regarding `C=C1CCC2(C(C)C)CC12` (stereo not given), the T/C (dose: 100.0 mg/kg/injection, schedule: Q01DX001 (ip), vehicle: saline sonified) is 109 % of control; the T/C (dose: 200.0 mg/kg/injection, schedule: Q01DX001 (ip), vehicle: saline sonified) was 104 % of control; the T/C (dose: 400.0 mg/kg/injection, schedule: Q01DX001 (ip), vehicle: saline sonified) is 104 % of control.
In the case of `CCNc1cc(Cl)nc(N)n1`, the T/C is, setting by setting: under setting [10], 95 % of control; under setting [11], 104 % of control; under setting [12], 104 % of control; under setting [2], 108 % of control; under setting [4], 95 % of control; under setting [6], 112 % of control.
As to `COc1ccccc1OC(=O)Nc1ccccc1F`, the T/C was 90 % of control under setting [2], 90 % of control under setting [4] and 100 % of control under setting [6].

The values above are taken from PubChem BioAssay AID328 (DTP/NCI, 2004).
